{"source": "patent US12529692B2", "about": "“Live cell imaging dynamic BH3 profiling” (Dana-Farber Cancer Institute, Inc., priority 2019, dated 2026)", "type_in_all_cases": "cell-based", "key": {"[1]": {"tested_on": "MMTV-PyMT-T1 cells", "experiment": "LCI-DBP on MMTV breast cancer PDX model", "settings": "MMTV-PyMT-T1 cells treated overnight, then BIM BH3 peptide 10 μM final; imaged 0-120 minutes; compared to undrugged (DMSO) cells; FIG. 3A", "method": "The plates with cells were stained with 10 μL per well of LCI-Staining Solution for 20 minutes at 37° C. in a 3307 Steri-Cult Incubator, Class 100 HEP. An EL406™ Combination Microplate Washer Dispenser was then used to aspirate the volume in the wells to 10 μL. The plates with cells were washed three times with LCI-Wash buffer to a final residual volume of 10 μL per well using the EL406™ Combination Microplate Washer Dispenser. The plate was then placed on an ImageXpress® Micro 4 High Content Screening System with the required settings, taking an image every two minutes. After two images, 10 μL of the selected LCI-DBP BIM peptide buffer(s) were added to the wells. The plate was then imaged for at most 2 hours.\nAs depicted, cells are plated on collagen-coated plates and allowed to incubate for 16-24 hours in the presence of a test agent. […] After all images are acquired, image analysis software is used to quantify differences in TMRE release between drug-treated cells and vehicle-treated cells. […]\nCells were imaged by live single-cell imaging at 0 minutes, 42 minutes, 50 minutes, 66 minutes, and 120 minutes following BH3 peptide addition (FIG. 3A). Nuclear staining was detected as a blue emission from Hoechst 33342, and mitochondrial transmembrane potential staining was detected as a […] emission from TMRE."}, "[2]": {"tested_on": "Pancreatic 8902 (Panc8902) cell line", "experiment": "Live cell imaging dynamic BH3 profiling (LCI-DBP) on Pancreatic 8902 cell line", "experimental": "Cells were imaged by live single-cell imaging at 18 minutes, 40 minutes, 48 minutes, 58 minutes, and 120 minutes following BH3 peptide addition (FIG. 2A). Nuclear staining was detected as a blue emission from Hoechst 33342, and mitochondrial transmembrane potential staining was detected as a green emission from TMRE. […]"}, "[3]": {"tested_on": "cells of a sample", "experiment": "LCI-DBP example workflow (FIG. 1A), delta priming compared across treatments", "settings": "bar graph of FIG. 1A comparing different treatments; cells not specified", "method": "An example workflow of live cell imaging dynamic BH3 profiling (LCI-DBP) is depicted in FIG. 1A. As shown, in some embodiments, cells are plated in a well (e.g., a well of a multi-well plate). In some embodiments, the plated cells are contacted with a test agent or a control solution (e.g., a vehicle solution used with the test agent, such as water, buffer, or a solvent), and the test agent is incubated with the cells for a treatment period. In some embodiments, the treated cells are stained with desired markers for imaging (e.g., nuclear and/or mitochondrial markers). In some embodiments, the cells are then treated with a reagent for measuring MOMP, such as a potentiometric dye. In some embodiments, the stained and treated cells are then contacted with a BH3 peptide. Cells treated with BH3 peptide are imaged by live cell imaging to detect the reagent for measuring MOMP. […] In some embodiments, the loss in emission from the potentiometric dye is evaluated for cells treated with the test agent as compared with cells that were not treated with the test agent. In some embodiments, the difference in emission between treated and untreated cells is determined to obtain a parameter referred to herein as delta priming. Image analysis software, or any suitable algorithm known to one skilled in the art, may be used to determine the difference in emission, or it may be determined manually. […]"}}}
{"smiles": "CO[C@H]1/C=C\\C=C(/C)C(=O)NC2=CC(=O)C(NCCN(C)C)=C(C[C@@H](C)C[C@H](OC)[C@H](O)[C@@H](C)/C=C(\\C)[C@@H]1OC(N)=O)C2=O", "note": "[17-DMAG]", "values": [{"measurement": "loss in mitochondrial potential, detected as loss in TMRE emission over time", "setting": "[1]", "result": "observable accelerated loss in mitochondrial potential"}]}
{"smiles": "Cc1c(-c2ccc(N3CCc4cccc(C(=O)Nc5nc6ccccc6s5)c4C3)nc2C(=O)O)cnn1CC12CC3CC(CC(C3)C1)C2", "note": "[A1331852]", "values": [{"measurement": "loss in mitochondrial potential, detected as loss in TMRE emission over time", "setting": "[2]; Panc8902 cells treated overnight, then BIM BH3 peptide 10 μM final, imaged 18-120 minutes, compared to undrugged (DMSO) cells, FIG. 2A", "result": "observable accelerated loss in mitochondrial potential"}]}
{"smiles": "CC1(C)CCC(c2ccc(Cl)cc2)=C(CN2CCN(c3ccc(C(=O)NS(=O)(=O)c4ccc(N[C@H](CCN5CCOCC5)CSc5ccccc5)c(S(=O)(=O)C(F)(F)F)c4)cc3)CC2)C1", "note": "[Navitoclax]", "values": [{"measurement": "half-time of TMRE loss in single cells (measurement of apoptotic priming)", "setting": "[2]; Panc8902 cells, drug 1 μM overnight, BIM BH3 peptide 1 μM final, monitored over 120 minutes, versus DMSO, FIG. 5C", "result": "decrease in the half-time of TMRE loss"}, {"measurement": "delta priming", "setting": "[3]", "result": "highest value for delta priming"}]}
